Source: PMC9784018, “Rational Strategy for Designing Peptidomimetic Small Molecules Based on Cyclic Peptides Targeting Protein–Protein Interaction between CTLA-4 and B7-1” (Pharmaceuticals, 2022)
Positions of bridges follow the written chain, without caps; N, C: chain ends. Residues, ends and D or L forms follow the SMILES beside them.

Tests used:
[1] = Solubility of synthesized peptide; format: physicochemical; details: chemically synthesized peptide, in inhibitor screening assay
Experimental: (§1) We prepared the C4m-3127 cyclic peptide using chemical synthesis and examined its properties. First, the inhibitory activity was tested using a kit (CTLA-4:B7-1[Biotinylated] Inhibitor Screening Assay, BPS Bioscience Inc.) (Figure 5A). […] In a sequence of C4m-3127, the GG linker behind C-terminal Cys had mutated into Glu and Arg.

[2] = target: T1, interaction between CTLA-4 and B7-1 (Homo sapiens, UniProt P16410); experiment: CTLA-4:B7-1[Biotinylated] Inhibitor Screening Assay (BPS Bioscience kit); format: binding
T1 construct: purchased BPS Bioscience Inc
T1 sequence (P16410 36-161 limits assumed): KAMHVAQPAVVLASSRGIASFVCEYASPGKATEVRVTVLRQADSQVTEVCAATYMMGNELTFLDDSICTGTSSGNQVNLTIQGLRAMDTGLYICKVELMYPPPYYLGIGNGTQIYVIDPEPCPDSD
Experimental: as §1
A cyclic peptide with a low EC50 value was synthesized by adding glycine to the N-terminus at Toray Research Center.
(B) Flow cytometry affinity analysis.

CTLA-4 = target: T2, CTLA-4 (Homo sapiens, UniProt P16410); experiment: Competitive ELISA against biotinylated C4m-3127 peptide; format: binding; details: competition with 30 μM biotinylated C4m-3127 peptide on immobilized CTLA-4; data not shown
T2 sequence (P16410 36-223): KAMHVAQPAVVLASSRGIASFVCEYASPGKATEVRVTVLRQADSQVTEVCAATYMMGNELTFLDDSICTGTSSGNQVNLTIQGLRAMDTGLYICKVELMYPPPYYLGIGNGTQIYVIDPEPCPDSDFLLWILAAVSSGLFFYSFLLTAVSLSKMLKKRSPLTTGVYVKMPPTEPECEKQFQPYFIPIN
Experimental: Competition experiments were performed using biotinylated C4m-3127 peptide instead of biotinylated B7-1 in the CTLA-4:B7-1[Biotinylated] inhibitor screening assay. The biotinylated C4m-3127 peptide was optimized to a concentration of 30 μM in an earlier experiment. CTLA-4 immobilized on a 384-well plate was reacted with PGF00506 in 11-point two-fold serial dilution from 1000 to 0.98 μM by assay buffer. Then, the biotinylated peptides were added to wells for competitive reaction. After washing, the residual amounts of biotinylated peptides were detected using streptavidin-HRP.

solubility [1]	IC50 ([2]; inhibition of CTLA-4:B7-1 interaction, luminescence, four-parameter logistic fit, read-out: IC50) [µM]	inhibitory activity compared to PGF00432 ([2]; ratio of IC50 values) [fold]	inhibitory activity compared to C4m-3127 ([2]; ratio of IC50 values, C4m-3127 synthetic peptide IC50 = 11.5 μM) [fold]	IC50 (CTLA-4) [µM]	SMILES
improved solubility	–	–	–	–	CC[C@H](C)[C@@H]1NC(=O)[C@@H]2CCCN2C(=O)[C@H](CC(C)C)NC(=O)[C@H](Cc2ccccc2)NC(=O)[C@@H]2CCCN2C(=O)[C@H](Cc2c[nH]cn2)NC(=O)[C@H](CCSC)NC(=O)[C@@H](NC(=O)CN)CSSC[C@@H](C(=O)N[C@@H](CCC(=O)O)C(=O)N[C@@H](CCCNC(=N)N)C(=O)O)NC(=O)[C@H](Cc2ccccc2)NC(=O)[C@H](Cc2c[nH]cn2)NC(=O)[C@H](Cc2c[nH]cn2)NC(=O)[C@H](CO)NC(=O)[C@H](C(C)C)NC1=O [C4m-3127 peptide] (H-GCMHPFLPIVSHHFCER-OH; disulfide 2-15; N-terminus and C-terminus assumed)
–	6.8	43	1.7	10.5	N=C(N)NCCC[C@H]1C(=O)N(CCC(c2ccccc2)c2ccccc2)C[C@@H]2N(C(=O)OCc3ccccc3)O[C@H](CC3CCCCC3)C(=O)N21 [PGF00506, Benzyl (3R,6S,9aS)-3-(cyclohexylmethyl)-8-(3,3-diphenylpropyl)-6-(3-guanidinopropyl)-4,7-dioxohexahydropyrazino [2,1-c][1,2,4]oxadiazine-1(6H)-carboxylate]
